Measurements as given in BindingDB's records for doi:10.7270/Q2319T8T (The Scripps Research Institute Molecular Screening Center, 2007).

Target: Steroidogenic factor 1 (Homo sapiens, UniProt Q13285)
Assay: blockers of SF-1 LBD reporter transcription – cell-based, CHO-K1, Gal4-SF-1 LBD, luciferase luminescence, dose response (AID 600)
[1] = inactive by the depositor's call

Sequence of Steroidogenic factor 1 (Q13285 whole entry, the tested form may be a part): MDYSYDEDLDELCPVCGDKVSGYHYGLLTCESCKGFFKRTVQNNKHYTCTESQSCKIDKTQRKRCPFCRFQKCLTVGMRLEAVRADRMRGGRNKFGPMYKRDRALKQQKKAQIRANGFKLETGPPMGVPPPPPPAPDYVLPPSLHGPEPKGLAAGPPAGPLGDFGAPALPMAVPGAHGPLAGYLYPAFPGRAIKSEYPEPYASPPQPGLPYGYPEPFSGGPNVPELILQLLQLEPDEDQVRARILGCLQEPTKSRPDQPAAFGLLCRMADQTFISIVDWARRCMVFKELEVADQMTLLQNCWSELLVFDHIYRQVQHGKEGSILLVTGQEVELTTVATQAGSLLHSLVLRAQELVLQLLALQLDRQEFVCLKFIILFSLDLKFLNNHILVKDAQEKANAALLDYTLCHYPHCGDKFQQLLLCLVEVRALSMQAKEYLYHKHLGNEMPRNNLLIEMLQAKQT

| Compound | IC50 [µM] | IC50 [1] [µM] |
| --- | --- | --- |
| CCC(NC(=O)Nc1nnc(C(F)(F)F)s1)(C(F)(F)F)C(F)(F)F | > 11 |  |
| CCc1ccc(-c2nnn(CCC(=O)OC)n2)cc1 | 6.69 |  |
| Cn1ncnc2c(=O)n(C)c(=O)nc1-2 | 0.75 |  |
| O=C1c2ccccc2C(=O)C1c1ccc2ccccc2n1 | 6.72 |  |
| Cc1ccc2[nH]c3c(N4CCN(Cc5ccc6c(c5)OCO6)CC4)ncnc3c2c1 | 7.31 |  |
| CC(C)OCCCNc1ncnc2c1[nH]c1ccc(F)cc12 |  | 20.7 |
| CN1/C(=C/C(=O)c2nc(S(C)(=O)=O)ncc2Cl)C(C)(C)c2ccccc21 |  | 15.5 |
| CCCCOC(=O)c1[nH]c2c(c1C)C(=O)CC(c1cc(OC)c(OC)c(OC)c1)C2 (stereo not given) |  | 16.9 |
| CC[C@H]1CN2CCc3cc(OC)c(OC)cc3[C@@H]2C[C@@H]1C[C@H]1NCCc2cc(OC)c(OC)cc21 | 0.202 |  |
| Clc1ccc(-c2nnc(NC3=NCCCCC3)o2)cc1 | > 3.67 |  |
| Nc1nsc2ccccc12 [1,2-benzothiazol-3-amine] | 6.84 |  |
| Cc1ccc(C(C)C)c(OCCNc2nc3c(c(=O)n(C)c(=O)n3C)n2C)c1 [1,3,7-trimethyl-8-[2-(5-methyl-2-propan-2-yl-phenoxy)ethylamino]purine-2,6-dione] | > 99 |  |
| Cc1ccc(CNc2nc3ccccc3s2)s1 [1,3-benzothiazol-2-yl-[(5-methyl-2-thienyl)methyl]amine] | > 11 |  |
| COc1cc2c(C#N)c(N3CCN(c4ccccc4OC)CC3)nc(N)c2c(N)n1 [1,8-diamino-6-methoxy-3-(4-(2-methoxyphenyl)piperazin-1-yl)-2,7-naphthyridine-4-carbonitrile] |  | 29.7 |
| CC(NC(=O)Nc1nnc(C(F)(F)F)s1)(C(F)(F)F)C(F)(F)F [1-(1,1,1,3,3,3-hexafluoro-2-methylpropan-2-yl)-3-[5-(trifluoromethyl)-1,3,4-thiadiazol-2-yl]urea] | 6.25 |  |
| Cc1ccccc1S(=O)(=O)Cc1ccc(C(=O)N2CCN(c3cccc(C)c3C)CC2)o1 [1-(2,3-dimethylphenyl)-4-(5-{[(2-methylphenyl)sulfonyl]methyl}-2-furoyl)piperazine] |  | 13.4 |
| Cc1occc1C(=O)N1CCN(c2ccc(Cl)c(Cl)c2)CC1 [1-(3,4-dichlorophenyl)-4-(2-methyl-3-furoyl)piperazine] |  | 29.7 |
| CCOc1ccccc1C(=O)N1CCN(c2cccc(Cl)c2)CC1 [1-(3-chlorophenyl)-4-(2-ethoxybenzoyl)piperazine] | > 1.22 |  |
| Cc1cccc(NC(=O)Nc2ccc(C#N)cc2)n1 [1-(4-cyanophenyl)-3-(6-methyl-2-pyridinyl)urea] | > 1.22 |  |
| COc1ccc(O)c(C(=O)CC(=O)c2ccc(F)cc2)c1 [1-(4-fluorophenyl)-3-(2-hydroxy-5-methoxy-phenyl)propane-1,3-dione] | > 11 |  |
| COc1cc(CSc2nnnn2-c2ccc(C)cc2)cc(OC)c1OC [1-(4-methylphenyl)-5-[(3,4,5-trimethoxybenzyl)thio]-1H-tetrazole] |  | 16.9 |
| CCOC(=O)C1CCN(Cc2ccc(O)c3ncccc23)CC1 [1-(8-Hydroxy-quinolin-5-ylmethyl)-piperidine-4-carboxylic acid ethyl ester] | 9.85 |  |
| CCn1nc(-c2ccccc2)nc2c(=O)n(C)c(=O)nc1-2 [1-Ethyl-6-methyl-3-phenyl-1H-pyrimido[5,4-e][1,2,4]triazine-5,7-dione] | 4.73 |  |
| Cc1csc(SCC(=O)c2cc(C)n(Cc3cccs3)c2C)n1 [1-[2,5-dimethyl-1-(2-thenyl)pyrrol-3-yl]-2-[(4-methylthiazol-2-yl)thio]ethanone] | > 3.67 |  |
| Cc1cc(-n2c(C)cc(C(=O)CSc3ncnc4ccccc34)c2C)no1 [1-[2,5-dimethyl-1-(5-methyl-1,2-oxazol-3-yl)pyrrol-3-yl]-2-quinazolin-4-ylsulfanyl-ethanone] | 9.13 |  |
| COc1ccc(NC(=O)NCCCN2CCN(c3cc(C)ccc3C)CC2)cc1 [1-[3-[4-(2,5-dimethylphenyl)-1-piperazinyl]propyl]-3-(4-methoxyphenyl)urea] |  | 24.3 |
| CC(=O)c1ccc(N2CCN(c3ccc(C(F)(F)F)cn3)CC2)cc1 [1-[4-[4-[5-(trifluoromethyl)-2-pyridinyl]-1-piperazinyl]phenyl]ethanone] | > 33 |  |

Other lines, results leading:

| IC50 [µM] | IC50 [1] [µM] | Compound |
| --- | --- | --- |
| 0.837 |  | CCOC(=O)C(C)Oc1cccc2c(=O)n(CC(=O)Nc3ccc4c(c3)OCCO4)ccc12 (stereo not given) |
| 3.9 |  | O=S1(=O)C=C(Sc2nnc(-c3ccccc3)o2)c2ccccc21 |
| 5.03 |  | CCN(CC)c1ccc(-c2nn3c(-c4ccccc4OC)nnc3s2)cc1 |
| 1.06 |  | Fc1ccc2[nH]c3c(N4CCN(c5ccccc5)CC4)ncnc3c2c1 |
| 3.56 |  | [H][C@@]12C[N@@](CCc3c([nH]c4ccccc34)[C@@](C(=O)OC)(c3cc4c(cc3OC)N(C=O)[C@]3([H])[C@]45CC[N@@]4CC=C[C@@](CC)([C@@H](OC(C)=O)[C@]3(O)C(=O)OC)[C@]45[H])C1)C[C@](O)(CC)C2 |
| 5.04 |  | COc1cc2nc(S)n3nc(CCn4nc(C)cc4C)nc3c2cc1OC |
| 4.65 |  | O=C(CC=Nc1cccc(F)c1)c1ccc2c(c1)OCO2 |
| 4.4 |  | O=C(CSc1nnc(COc2cccc3cccnc23)o1)N1CCc2ccccc21 [1-(2,3-Dihydro-indol-1-yl)-2-[5-(quinolin-8-yloxymethyl)-[1,3,4]oxadiazol-2-ylsulfanyl]-ethanone] |
| 4.96 |  | CCCS(=O)(=O)c1nnnn1-c1cccc(OC)c1 [1-(3-methoxyphenyl)-5-(propylsulfonyl)-1H-tetrazole] |
| 0.221 |  | Cc1ccc(-c2nsc3c(N4CCC(C(N)=O)CC4)ncnc23)cc1 [1-(3-p-Tolyl-isothiazolo[4,5-d]pyrimidin-7-yl)-piperidine-4-carboxylic acid amide] |
| 5.85 |  | CC(C)NCC(O)Cn1c2c(c3ccccc31)CCc1c-2cnn1-c1ccccc1 (stereo not given) [1-(3-phenyl-4,5-dihydropyrazolo[4,3-a]carbazol-10-yl)-3-(propan-2-ylamino)-2-propanol] |
| 3.17 |  | Clc1ccc(-n2ncc3c(N4CCCC4)ncnc32)cc1 [1-(4-chlorophenyl)-4-(1-pyrrolidinyl)pyrazolo[3,4-d]pyrimidine] |
| < 0.00503 |  | CC1CCCN(c2ncnc3c2cnn3-c2ccc(Cl)cc2)C1 (stereo not given) [1-(4-chlorophenyl)-4-(3-methyl-1-piperidinyl)pyrazolo[3,4-d]pyrimidine] |
| 1.77 |  | COc1ccc(-n2ncc3c(N4CCCCC4)ncnc32)cc1 [1-(4-methoxyphenyl)-4-(1-piperidinyl)pyrazolo[3,4-d]pyrimidine] |
| 5.45 |  | COCCn1c(C)cc(C(=O)CSc2nnc(C)s2)c1C [1-[1-(2-methoxyethyl)-2,5-dimethyl-1H-pyrrol-3-yl]-2-[(5-methyl-1,3,4-thiadiazol-2-yl)thio]ethanone] |
| 3.42 |  | CCOC(=O)C1CCN(c2ncnc3c2cnn3-c2ccc(Cl)cc2)CC1 [1-[1-(4-chlorophenyl)-4-pyrazolo[3,4-d]pyrimidinyl]-4-piperidinecarboxylic acid ethyl ester] |
| 5.76 |  | Cc1ccc(-c2csc3ncnc(Sc4nnc(CN5CCCCCC5=O)o4)c23)cc1 [1-[[5-[5-(4-methylphenyl)thieno[2,3-d]pyrimidin-4-yl]sulfanyl-1,3,4-oxadiazol-2-yl]methyl]azepan-2-one] |
| 3.17 |  | Nc1nnnn1N=C/C(Br)=C/c1ccccc1 [1-[[(Z)-2-bromanyl-3-phenyl-prop-2-enylidene]amino]-1,2,3,4-tetrazol-5-amine] |
